Assay results from patent US20170274005A1, “TREATMENT OF RETINITIS PIGMENTOSA USING HYALURONIC ACID-CARBON NANOMATERIAL-PHOTOSENSITIZER COMPLEX” (POSTECH ACADEMY-INDUSTRY FOUNDATION, priority 2016, published 2017).

Tests used:
[1] = system: retinal pigment epithelium cell; assay: MTT assay of retinal pigment epithelium cell treated using sodium iodate; assay type: cell-based; details: pre-treatment, then 5 mM sodium iodate, 24 hours, FIG. 5
[2] = Analysis of prevention of active oxygen using DPPH; details: aqueous solution, 0 to 100 μg/mL based on the amount of Ce6, FIG. 2

**Q.** Which “viability of the pre-treated cell versus cell treated using sodium iodate only” value [1] does the source give for chlorine e6 [Ce6] here?
**A.** lower

**Q.** And the “active oxygen suppression ability” value [2]?
**A.** 60%
